Measured values as given in ChEMBL document CHEMBL1142619, “Three new flavonol galloylglycosides from leaves of Acacia confusa” (J Nat Prod, 2000).
In brackets after ≈: the same amount, converted by molar mass.

System: Artemia salina
Test: Toxicity in Artemia salina assessed as inhibition of egg hatching after 48 hrs
Type: organism-based

Row | SMILES | IC50 [µg/mL]
1 | C[C@H]1O[C@H](Oc2c(-c3cc(O)c(O)c(O)c3)oc3cc(O)cc(O)c3c2=O)[C@@H](O)[C@@H](OC(=O)c2cc(O)c(O)c(O)c2)[C@@H]1O | 64 (≈ 104 µM)
2 | C[C@H]1O[C@H](Oc2c(-c3cc(O)c(O)c(O)c3)oc3cc(O)cc(O)c3c2=O)[C@@H](OC(=O)c2cc(O)c(O)c(O)c2)[C@@H](O)[C@@H]1O | 75 (≈ 122 µM)
3 | COc1cc(O)c2c(=O)c(O[C@H]3O[C@H](C)[C@@H](O)[C@H](OC(=O)c4cc(O)c(O)c(O)c4)[C@@H]3O)c(-c3cc(O)c(O)c(O)c3)oc2c1 | 50 (≈ 79.3 µM)
4 | COc1cc(O)c2c(=O)c(O[C@H]3O[C@H](C)[C@@H](O)[C@H](O)[C@@H]3OC(=O)c3cc(O)c(O)c(O)c3)c(-c3cc(O)c(O)c(O)c3)oc2c1 | 89 (≈ 141 µM)
